Here are results for one substance from US20250144178A1, “PHARMACEUTICAL COMPOSITION FOR CANCER TREATMENT COMPRISING FUSION PROTEIN INCLUDING IL-12 AND ANTI-FAP ANTIBODY AND ANTICANCER AGENT” (KANAPH THERAPEUTICS INC., priority 2022, published 2025).

In assay [1] the test system is HEK-Blue IL-12 cells. In words: Signaling ability in IL-12 recognizing cells (STAT4 inducible SEAP reporter). The format is cell-based, human. The settings on record: serial dilution from 4 nM, 24 hours, FIG. 18. On the procedure:
The HEK-Blue IL-12 cell line transformed with the IL-12 receptor gene and the STAT4 inducible SEAP reporter gene into HEK293 cells, which are human embryonic kidney fibroblasts, was obtained from Invivogen (San Diego, USA). The HEK-Blue IL-12 cells were maintained in DMEM (GIBCO) containing 10% FBS (GIBCO), 100 μg/ml Normocin and 1×HEK-Blue selection.
Specifically, the HEK-Blue IL-12 cell line, which is an IL-12 recognizing cell, was diluted to 2.8×10^5 cells/ml and dispensed at 180 μl/well. Recombinant human IL-12, T1.01m, T1.02m, T1.03m and T1.12m were suspended at 4 nM and diluted by serial dilution. HEK-Blue IL-12 cells were treated with the diluted recombinant human IL-12, T1.01m, T1.02m, T1.03m and T1.12m. After 24 hours of treatment, the cell supernatant was collected and mixed with QUANTI-Blue Solution (Invivogen) in a 96-well plate. The reporter expression level was measured at 620 nm using a spectrophotometer (Thermo Fisher).

Assay [2] concerns IL-12 receptor of human T cells. The experiment in a line: p-STAT4 signaling ability in human T cells (AlphaLISA). Format: cell-based. The settings on record: anti-CD3 activated human T cells, 2 hours, FIG. 19; read-out: half maximal effective concentration (EC50), p-STAT4. On the procedure: In order to identify whether when IL-12 binds to the IL-12 receptor of human T cells, IL-12 initiate signaling by inducing phosphorylation of STAT4, a signaling mediator, the human T cells activated with anti-CD3 (OKT3, Invitrogen) were analyzed using the AlphaLISA SureFire Ultra p-STAT4 (Tyr693) Assay Kit (PerkinElmer, Massachusetts, USA).
Specifically, human proteins IL-12, T1.01, T1.02, T1.03 and T1.12 were suspended at 100 ng/ml and diluted by serial dilution. The human T cells activated with anti-CD3 (OKT3, Invitrogen) were treated with the diluted recombinant human IL-12, T1.01, T1.02, T1.03 and T1.12. After 2 hours of treatment, the cells were lysed and treated with a reagent (PerkinElmer) that detects p-STAT4 (phosphorylated STAT4). pSTAT4 was detected at an excitation wavelength of 680 nm and an emission wavelength of 615 nm with a spectrophotometer.
A general note: Bead proximity is the source of the signal in Alpha formats.

Assay [3] concerns human T cells. The experiment in a line: IFN-γ secretion in human T cells (ELISA). The format is cell-based. The settings on record: anti-CD3 activated human T cells, 48 hours, FIG. 21. The protocol: For cytokine measurement, enzyme-linked immunosorbent assay (ELISA, R&D systems) was performed on the supernatant stored at −20° C. in the following steps:
(i) The capture antibody was diluted according to the Certificate of Analysis (CoA) and coated on a 96-well plate for 24 hours.
(ii) The wells were washed with a wash solution, and then blocking was performed for 1 hour with 1% BSA (Bovine serum albumin, Sigma) solution.
(iii) The wells were washed with a wash solution, and then the samples were treated for 2 hours.
(iv) The wells were washed with a wash solution, and then the detection antibody was diluted according to the Certificate of Analysis and aliquoted into the wells, and then the wells were treated therewith for 2 hours.
(v) The wells were washed with a wash solution, and then treated with streptavidin-HRP for 20 minutes.
(vi) The wells were washed with a wash solution, and then treated with a substrate solution for 20 minutes.
(vii) The wells were treated with a stop solution, and the absorbance was measured at 450 nm.
Specifically, the human T cells activated with anti-CD3 (OKT3, Invitrogen) were diluted to 5×10^5 cells/ml and dispensed in a 96-well plate at 200 μl/well. Recombinant human IL-12, T1.12, T1.01, T1.02 and T1.03 were diluted to 10 nM and dispensed at 20 μl/well. […]
Background: In an ELISA, binding on a coated surface is turned into a signal by an enzyme label.

For “recombinant human IL-12: Recombinant human IL-12 used as comparator in signaling and IFN-γ secretion tests [reference compound]”, the “IL-12 recognition / STAT4 reporter gene expression (620 nm absorbance)” value in assay [1] is “IL-12 was recognized, and STAT4 expressed a reporter gene by inducing phosphorylation”. The EC50 in assay [2] worked out at 8.95 pM. The “average IFN-γ in supernatant” value in assay [3] is 1,640 pg/ml.
